Patent publication US9603804B2, “Solid pharmaceutical composition” (KYORIN PHARMACEUTICAL CO., LTD., priority 2013, dated 2017)

Assay: Solubility in water at 20° C. of acidic substances
Type: physicochemical
Conditions: MW={C/(100+C)}×100, C = mass (g) of solute dissolved in 100 g of water
Procedure: The “solubility in water” herein is a value obtained by calculation using the following equation (A) on the basis of the mass (g) of a solute that is dissolved in 100 g of water. MW={C/(100+C)}×100 (A) In the equation (A), MW represents the solubility (%) in water and C represents the mass (g) of a solute that is dissolved in 100 g of water.

SOLUBILITY IN WATER (20° C.) [%]	SMILES
36.0	O=C(O)CC(O)C(=O)O (racemic) [DL-MALIC ACID, DL-malic acid]
0.63	O=C(O)/C=C/C(=O)O [FUMARIC ACID, fumaric acid]

Assay: pH measurement of acidic/basic substances (2.5% liquid, pH meter)
Type: physicochemical
Conditions: 50 mg substance dissolved or suspended in 1,950 μL of water (concentration: 2.5%)

pH	SMILES
2.1	O=C(O)CC(O)C(=O)O (racemic) [DL-MALIC ACID, DL-malic acid]
2.1	O=C(O)CC(O)(CC(=O)O)C(=O)O [ANHYDROUS CITRIC ACID, citric acid anhydride]
5.1	O=C([O-])CC(O)(CC(=O)[O-])C(=O)O.[Na+].[Na+] [DIBASIC SODIUM CITRATE, dibasic sodium citrate]
2.2	O=C(O)/C=C/C(=O)O [FUMARIC ACID, fumaric acid]
1.9	O=C(O)C(O)C(O)C(=O)O [L-(+)TARTARIC ACID, L-(+)tartaric acid]
2.8	N[C@@H](CC(=O)O)C(=O)O [L-ASPARTIC ACID, L-aspartic acid]
1.5	Cl.N[C@@H](CCC(=O)O)C(=O)O [L-GLUTAMIC ACID HYDROCHLORIDE, L-glutamic acid hydrochloride]
3.0	N[C@@H](CCC(=O)O)C(=O)O [L-GLUTAMIC ACID, L-glutamic acid]
3.7	O=C([O-])CC(O)(CC(=O)O)C(=O)O.[Na+] [MONOBASIC SODIUM CITRATE, monobasic sodium citrate]
8.2	O=C([O-])CC(O)(CC(=O)[O-])C(=O)[O-].[Na+].[Na+].[Na+] [SODIUM CITRATE, sodium citrate]
